The record followed here is ChEMBL document CHEMBL4393728, “1-Phenyl-dihydrobenzoindazoles as novel colchicine site inhibitors: Structural basis and antitumor efficacy” (Eur J Med Chem, 2019).

The subject of data set [1] is COLO 205. Put plainly: Antiproliferative activity against human COLO205 cells assessed as reduction in cell viability incubated for 72 hrs by MTT assay. In kind it is functional, cell-based. The conditions noted are these: COLO 205, 72 h. (Formazan colour is commonly taken as a measure of viable cells.)
The next data set has as its target Tubulin (Bos taurus, UniProt Q6B856+Q862L2+Q862F3). Put plainly: Inhibition of bovine brain tubulin polymerization measured every 1 min for 60 mins by turbidimetric assay.
Data set [2] concerns HCT-116. Put plainly: Antiproliferative activity against human HCT116 cells assessed as reduction in cell viability incubated for 72 hrs by MTT assay. In kind it is functional, cell-based. The conditions noted are these: HCT-116, 72 h.
The nature of data set [3]: Solubility of compound in normal saline. In kind it is physicochemical.
Data set [4] has as its system COLO 205. The data set can be described thus: Antitumor activity against human COLO205 cells xenografted in BALB/c mouse assessed as reduction in tumor growth at 20 mg/kg, iv via tail once every 4 days for 16 days. In kind it is functional, organism-based.
Data set [5] concerns HCT-116. Put plainly: Antitumor activity against human HCT116 cells xenografted in BALB/c mouse assessed as reduction in tumor growth at 20 mg/kg, iv via tail once every 4 days for 16 days. In kind it is functional, organism-based. In general terms: In xenograft studies the graft and the host belong to different species.
Data set [6] can be described thus: Toxicity in BALB/c mouse xenografted with COLO205 cells assessed as reduction in body weight at 20 mg/kg, iv via tail once every 4 days for 16 days. The conditions noted are these: in vivo. In kind it is organism-based.
Data set [7] in a line: Toxicity in BALB/c mouse xenografted with HCT116 cells assessed as reduction in body weight at 20 mg/kg, iv via tail once every 4 days for 16 days. In kind it is organism-based. Particulars: in vivo.

pIC50: −log10 of the molar value. Converted amounts (≈) assume the structure as drawn. The source made the active and inactive calls. The calls are words filed in the database; no cut-off is given here.

Regarding `COc1ccc(-c2c3c(nn2-c2ccccc2)CCc2c-3cc(OC)c(OC)c2OC)cc1F`, the pIC50 in the data set on COLO 205 [1] is less than 5.00. The IC50 against Tubulin was more than 10 µM.

With `COc1ccc(-c2[nH]nc3c2-c2cc(OC)c(OC)c(OC)c2CC3)cc1N`, the pIC50 in the data set with COLO 205 [1] and in the data set on HCT-116 [2] was 9.00 throughout. At Tubulin, this molecule came in with a concentration for half-maximal inhibition (IC50) of 1.6 µM. In data set [3], this molecule registered a solubility of 1000 µg/mL (≈ 2620 µM).

On to `COc1ccc(-c2c3c(nn2CCO)CCc2c-3cc(OC)c(OC)c2OC)cc1F`, for which, in the data set with COLO 205 [1], the negative logarithm of the IC50 (pIC50) is 5.54. The same molecule had a 50% inhibitory concentration (IC50) at Tubulin of more than 10 µM.

As for `COc1ccc(/C=C\c2cc(OC)c(OC)c(OC)c2)cc1O` [COMBRETASTATIN A4], the negative-log IC50 (pIC50) in the data set on HCT-116 [2] was 9.00.

Regarding `COc1ccc(/C=C2\c3cc(OC)c(OC)c(OC)c3CC[C@H]2O)cc1`, in the data set on COLO 205 [1], the pIC50 is 5.53. The same molecule displayed a half-inhibitory concentration (IC50) against Tubulin of more than 10 µM.

On to `COc1ccc(-c2[nH]nc3c2-c2cc(OC)c(OC)c(OC)c2CC3)cc1NC(=O)[C@@H](N)CO.Cl`, for which the figures for the negative logarithm of the IC50 (pIC50) with COLO 205 [1] and in the data set with HCT-116 [2] were 5.68 and 5.71, respectively. On Tubulin, the IC50 is more than 10 µM. For the same molecule, the result in the data set on COLO 205 [4] and in the data set with HCT-116 [5] was Active. Further, the Activity result in data set [6] and in data set [7] was “Non-Toxic” in each case.

With `COc1ccc(-c2c3c(nn2C)CCc2c-3cc(OC)c(OC)c2OC)cc1`, in the data set with COLO 205 [1], the negative logarithm of the IC50 (pIC50) was 5.47. Besides, the IC50 against Tubulin is more than 10 µM.

Consider `COc1ccc(-c2[nH]nc3c2-c2cc(OC)c(OC)c(OC)c2CC3)cc1F`, for which the pIC50 with COLO 205 [1] is 8.70. This molecule also registered a 50% inhibitory concentration (IC50) on Tubulin of 9.2 µM.

Regarding `COc1ccc(/C=C2\c3cc(OC)c(OC)c(OC)c3CC[C@@H]2O)cc1`, the pIC50 with COLO 205 [1] was 5.09. The molecule further had a half-inhibitory concentration (IC50) at Tubulin of more than 10 µM.

In the case of `COc1ccc(-c2c3c(nn2C)CCc2c-3cc(OC)c(OC)c2OC)cc1F`, the negative logarithm of the IC50 (pIC50) in the data set with COLO 205 [1] was 5.91. This molecule also returned a concentration for half-maximal inhibition (IC50) against Tubulin of more than 10 µM.

For `COc1ccc(-c2[nH]nc3c2-c2cc(OC)c(OC)c(OC)c2CC3)cc1[N+](=O)[O-]`, in the data set on COLO 205 [1], the pIC50 was 6.52. Further, the IC50 at Tubulin was more than 10 µM.

A word on the pIC50: it is −log10 of the IC50, conventionally taken in molar units. Usually IC50 stands for the point on the concentration scale where inhibition reaches its midpoint. Low values mean inhibition by little substance, high ones a need for much substance. A word on the solubility: it is the dissolved amount per volume that the medium holds. Low readings indicate little dissolved substance, high ones much dissolved substance.
